Results on eleven compounds are retold here after paper PMC7238976 (Phytochemistry, 2020).

The test system of one series is MT4 cells. The series is described as follows: Cytotoxicity toward MT4 cells. The conditions noted are these: read-out: Cytotoxicity CC50, means, n = 3. In kind it is cell-based.
A further series has as its system HL4–3 virus. The series is described as follows: Anti-HIV-1 activity against HL4–3 virus in MT4 cells. Type of series: cell-based.
The test system of another series is HIV. As to conditions: read-out: Anti-HIV IC50 (literature); ref Olivon, et al., 2017; cited from earlier work.
Series [1] in a line: Cytotoxicity toward MT4 cells. The conditions noted are these: human. Type of series: cell-based.
Setting [2] is: read-out: Anti-HIV-1 IC50, HL4–3 virus in MT4 cells, means, n = 3.

Read-outs that look alike come from different tables or passages of the source.

In the case of Crotignoid M [Compound 2], the CC50 (usually the concentration at which the toxic effect on the cells reaches its halfway point) with MT4 cells is above 1.7 µM. The IC50 (as a rule, the concentration at which inhibition is half-maximal) in the series on HL4–3 virus (setting [2]) is 0.038 µM.
Crotignoid N [Compound 3]: the CC50 with MT4 cells is above 1.6 µM. In the series with HL4–3 virus (setting [2]), the IC50 is 0.31 µM.
`CCCCCCCCCCCCCCCC(=O)O[C@@]12C[C@@H](C)[C@@]3(O)[C@@H](C=C(CO)C[C@]4(O)C(=O)C(C)=C[C@@H]34)[C@@H]1C2(C)C` [Compound 7, 12-deoxyphorbol-13-hexadecanoate]: the CC50 in the series on MT4 cells is above 1.7 µM. The IC50 in the series with HL4–3 virus (setting [2]) stood at 0.0023 µM.
For the compound Crotignoid O [Compound 4], the CC50 with MT4 cells is above 1.8 µM. In addition, in the series with HL4–3 virus (setting [2]), the IC50 stood at 4.03 µM.
Take `CCCCCCCCCCCCCCCC(=O)O[C@@]12C[C@@H](C)[C@@]3(O)[C@H]([C@@H]1C2(C)C)[C@H](O)[C@](O)(CO)[C@@H](O)[C@]1(O)C(=O)C(C)=C[C@H]13` [12-deoxy-5β-6β-7α-trihydroxy-phorbol-13-hexadecanoate]: the IC50 in the series with HIV is 0.257 µM.
For the compound `Cc1cn([C@H]2C[C@H](N=[N+]=[N-])[C@@H](CO)O2)c(=O)[nH]c1=O` [AZT, zidovudine, reference compound], the CC50 in series [1] was above 0.37 µM. Besides, in the series with HL4–3 virus (Human immunodeficiency virus 1, MT4, read-out: Anti-HIV-1 IC50), the IC50 worked out at 0.0187 µM. The “Selectivity index SI” value in the series on HL4–3 virus (ratio of CC50 and anti-HIV IC50) is reported as above 20.
Crotignoid P [Compound 5]: the CC50 with MT4 cells is above 1.6 µM. The IC50 with HL4–3 virus (setting [2]) is 0.1 µM.
In the case of Crotignoid Q [Compound 6], the CC50 in the series on MT4 cells was above 1.9 µM. The “Anti-HIV activity (in words)” value in the series on HL4–3 virus (HL4–3 virus in MT4 cells) was “did not show anti-HIV activity”. In the series with HL4–3 virus (setting [2]), the IC50 was above 1.9 µM.
Take `CCCCCCCCCCCCCCCC(=O)O[C@@]12C[C@@H](C)[C@]3(O)[C@@H]4C=C(C)C(=O)[C@@]4(O)[C@H](O)C(CO)=C[C@H]3[C@@H]1C2(C)C` [12-deoxy-5β-hydroxy-phorbol-13-hexadecanoate]: the IC50 with HIV was 0.002 µM.
For Crotignoid L [Compound 1], the CC50 in the series on MT4 cells is above 1.8 µM. The IC50 in the series with HL4–3 virus (setting [2]) is 0.22 µM.
For `CCCCCCCCCCCCCC(=O)O[C@@]12C[C@@H](C)[C@@]3(O)[C@@H](C=C(CO)C[C@]4(O)C(=O)C(C)=C[C@@H]34)[C@@H]1C2(C)C` [Compound 8, 12-deoxyphorbol-13-myristate], the CC50 with MT4 cells was above 1.8 µM. Further, in the series with HL4–3 virus (setting [2]), the IC50 amounted to 0.022 µM.
